Assay results taken from US8927023B2, “Biocompatible, non-biodegradable, non-toxic polymer useful for nanoparticle pharmaceutical compositions” (Fresenius Kabi Oncology Limited, priority 2005, dated 2015).

How the values were obtained:
[1] = Average particle size of the nanoparticles in the pharmaceutical composition; assay type: physicochemical; conditions: 1 ml ethanol solution into ≈35 ml
Source text: (§1) This could be exemplified with respect to pharmaceutical compositions of two poorly water-soluble anticancer drugs or compounds, viz.

[2] = Clarity of the solution of the nanoparticulate composition; assay type: physicochemical
Source text: as §1

[3] = Stability: hours the drug remains in solution without precipitation
Source text: By reference to the term “stability”, it is to be construed to mean the period, counted in hours, wherein the poorly water-soluble drug or compound remains in solution in the pharmaceutical composition comprising the same, without any precipitation of the drug or compound from therein.

[4] = 1 ml ethanol solution into ≈35 ml, needle 0.305 mm, addition 3 Secs
[5] = 1 ml ethanol solution into ≈35 ml, needle 1.270 mm, addition 2 Secs
[6] = 1 ml ethanol solution into ≈35 ml, needle 1.270 mm, addition 6 Secs
[7] = 15 ml ethanol solution into ≈500 ml, needle 0.330 mm, addition 18 Secs
[8] = 15 ml ethanol solution into ≈500 ml, needle 0.711 mm, addition 10 Secs

Structure (SMILES): C=C(C)[C@@H]1CC[C@]2(C(=O)O)CC[C@]3(C)C(CCC4[C@@]5(C)Cc6c([nH]c7ccc(Cl)cc67)C(C)(C)C5CC[C@]43C)C12 (stereo partly drawn) [DRF-4012]
- Average Particle Size (nm) ([1]; needle 0.305 mm, addition 6 Secs): 200 nm
- Average Particle Size (nm) ([1]; needle 0.465 mm, addition 2 Secs): 90 nm
- Average Particle Size (nm) ([1]; needle 0.467 mm, addition 6 Secs): 200 nm
- Average Particle Size (nm) ([1]; needle 0.711 mm, addition 2 Secs): 100 nm
- Average Particle Size (nm) ([1]; needle 0.711 mm, addition 6 Secs): 240 nm
- Average Particle Size (nm) ([1]; needle 1.270 mm, addition 2 Secs): 130 nm
- Average Particle Size (nm) ([1]; needle 1.270 mm, addition 6 Secs): 8100 nm
- Average Particle Size (nm) ([1]; nanoparticles with the polymer, needle 0.305 mm, addition 3 Secs): 70 nm
- Clarity Of The Solution [2, 4]: Clear
- Clarity Of The Solution [2, 5]: Opalescent
- Clarity Of The Solution [2, 6]: Milky

Structure (SMILES): CC(=O)O[C@H]1C(=O)[C@@]2(C)[C@H]([C@H](OC(=O)c3ccccc3)[C@]3(O)C[C@H](OC(=O)[C@H](O)[C@@H](NC(=O)c4ccccc4)c4ccccc4)C(C)=C1C3(C)C)[C@]1(OC(C)=O)CO[C@@H]1C[C@@H]2O [Paclitaxel]
- Clarity Of The Solution [2, 4]: Clear
- Clarity Of The Solution [2, 5]: Opalescent
- Clarity Of The Solution [2, 6]: Milky
- Clarity Of The Solution [2, 7]: Clear
- Clarity Of The Solution [2, 8]: Clear
- Stability [3, 4]: >24 h
- Stability ([3]; 1 ml ethanol solution into ≈35 ml, needle 0.305 mm, addition 6 Secs): <4 h
- Stability ([3]; 1 ml ethanol solution into ≈35 ml, needle 0.467 mm, addition 2 Secs): 20 h
- Stability ([3]; 1 ml ethanol solution into ≈35 ml, needle 0.467 mm, addition 6 Secs): <2 h
- Stability ([3]; 1 ml ethanol solution into ≈35 ml, needle 0.711 mm, addition 2 Secs): <10 h
- Stability ([3]; 1 ml ethanol solution into ≈35 ml, needle 0.711 mm, addition 6 Secs): <2 h
- Stability [3, 5]: <4 h
- Stability [3, 6]: <0.5 h
- Stability [3, 7]: 20 h
- Stability [3, 8]: >24 h
- Stability ([3]; 15 ml ethanol solution into ≈500 ml, needle 0.711 mm, addition 15 Secs): <15 h
